# Experimental data as given in PubChem BioAssay (NCI).
#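 Where inhibition never reached the appropriate level, the endpoint shown equals the highest concentration tested. Otherwise, values were interpolated linearly from a five-concentration, 48-hour dose response in 96-well plates. GI50: concentration for 50% inhibition of growth. TGI: total growth inhibition.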
# Test system: MDA-MB-468 breast
# Assay: DTP human tumour cell line panel, 48 h
Compound,GI50 [µM],TGI [µM]
COc1ccccc1N1CCN(CCc2c[nH]c3cc4c(cc23)OCO4)CC1,15.8,44.5
N#Cc1c(-c2cccs2)cc(-c2cnccn2)nc1SCC(=O)N/N=C/c1ccccc1,3.9,13.9
COc1cc(NC(=O)CSc2nc3ccc(C)cc3c(=O)n2Cc2ccccc2)cc(OC)c1OC,4.11,68.1
CCN1C(=O)N(c2ccccc2)C2NC(=S)N(/N=C/C=C/c3ccccc3)C21 (configuration not stated),0.347,> 100
CC(=C(c1ccc(OCCN2CCCC2)cc1)c1ccc(OCCN2CCCC2)cc1)c1ccc(Cl)cc1,2.37,5.01
COc1cc(/C=N/NC(=O)c2cnn3c2NC(c2ccccc2)C3)ccc1Oc1ccccc1 (configuration not stated),0.648,5.72
